Paper PMC10641814 (Journal of Medicinal Chemistry, 2023)

Columns and labels:
[1] = molecular target: T1, h5-HT6R (Homo sapiens, UniProt P50406); assay: 5-HT6R antagonist activity at Gs signaling, cAMP in 1321N1 cells (5-CT stimulated); type: cell-based; details: 1321N1 cells expressing h5-HT6R; read-out: EC50 (agonist, cAMP production)
T1 construct: expressed in transfected cells

[2] = test system: oAβ25–35-induced memory deficits in rats; assay: oAβ25–35-induced memory deficits in T-maze test in rats; type: in vivo, rat
Procedure: For the AD model, adult male Sprague–Dawley rats (Janvier Lab., France) weighing 260–280 g (8 weeks) at the beginning of the experiments were housed 1 week before experiments in a standard animal facility of the University of Montpellier (CECEMA, registration number E34-172-23) (12/12 h light/dark cycle with lights on at 07:00; 21 ± 1 °C, food and water ad libitum). All experiments, including sacrifices, were performed in conscious rats between 09:00 and 12:00, during the diurnal period of the circadian rhythm. Male has been preferred over female because the latter may present a confounding factor of the estrous cycle, a parameter that needs to be systematically controlled. Animal procedures were conducted in strict adherence to the European Union Directive of 2010 (2010/63/EU). The National French Animal Welfare Committee and the local committee at the University of Montpellier approved all protocols (authorization: CEEA-LR-12160). All efforts were made to minimize the number of animals used, potential pain, suffering, and distress.
As previously detailed,[37],[64] to induce the acute model of AD (oAβ25–35 model), rats were divided into three groups. One group had no surgery (Naive group), a second set of animals received an intracerebroventricular (icv) injection of incubated scrambled peptide (negative control groups—10 μg/rat—Sc), and a third set received an icv injection of oAβ25–35 (AD groups—10 μg/rat—Aβ). The animals were anesthetized with an intraperitoneal (ip) injection of a mixture of ketamine and xylazine (80 and 10 mg/kg b.w., respectively). Scrambled peptide and oAβ25–35 were injected directly into the lateral ventricles at a rate of 2 μL/min using a David-Kopf stereotaxic apparatus (coordinates of injection: AP −1 mm, L ±1.5 mm, DV −3.5 mm).
1—A curative approach: This treatment was started 1 week after the induction of amyloid toxicity (icv injection of oAβ25–35) and consisted of 2 ip injections (1.5 mg/kg per injection) per day for 1 week. On day 14, animals were subjected to a behavioral memory test (T-maze) and sacrificed on day 15 by decapitation.
(§1) 2—A preventive approach: This treatment was started at the same time as the induction of amyloid toxicity and consisted of implanting ip, and during the same anesthetic procedure necessary for the icv injection of oAβ25–35, an osmotic pump (Alzet-EML2, Charles-River, France) which continuously delivered the molecules for 1 week at the dose of 3 mg/kg/day. On day 7, animals were submitted to a behavioral memory test (T-maze) and sacrificed on day 8 by decapitation.
As previously reported, the T-maze test was used to rapidly assess cognitive ability in rats, especially the short-term memory deficits, when performed in two successive sessions.[37],[38],[64],[65] The T-maze consisted of two short arms (A and B), extending from a longer alley (C) and enclosed with high walls. The test involved two trials, separated by 1 h. During the training session, one short arm (B) was closed. Rats were placed at the end of the long alley, allowed to visit the maze for 10 min, and then returned to their home cage. […] The number of visits and time spent in each arm were measured. The results were expressed as the ratio of the time spent in the initially closed novel arm, over the time spent in the previous arm, and as a ratio of the number of entries into the novel arm over the familiar one. […]

[3] = test system: hippocampus of rats injected with oAβ25–35; assay: Western blot of hippocampal AD biomarkers in oAβ25–35-injected rats; type: in vivo, rat; details: oAβ25–35 icv
Procedure: As previously detailed,[37],[64] to induce the acute model of AD (oAβ25–35 model), rats were divided into three groups. […] The animals were anesthetized with an intraperitoneal (ip) injection of a mixture of ketamine and xylazine (80 and 10 mg/kg b.w., respectively). Scrambled peptide and oAβ25–35 were injected directly into the lateral ventricles at a rate of 2 μL/min using a David-Kopf stereotaxic apparatus (coordinates of injection: AP −1 mm, L ±1.5 mm, DV −3.5 mm).
On day 14, animals were subjected to a behavioral memory test (T-maze) and sacrificed on day 15 by decapitation.
as §1
At the time of sacrifice, all hippocampi were dissected out, weighed, and rapidly frozen in liquid nitrogen for Western blot (WB) analysis.
Western blot analyses were performed on the whole hippocampus as previously described.[37] All antibodies used are detailed in Table S3. Briefly, after sacrifice, hippocampi were microdissected, weighed, immediately frozen in liquid nitrogen, and stored at −20 °C. Tissues were sonicated (VibraCell; Sonics & Materials, USA) in a lysis buffer[37] and centrifuged (4 °C). Supernatants were collected, and the protein concentration was measured using a bicinchoninic Acid (BCA) assay (ThermoFisher Scientific, France). […] The membranes were incubated overnight (4 °C) with the primary antibody, washed, and then incubated for 2 h with the appropriate horseradish peroxidase-conjugated secondary antibody. […] The intensity of the immunoreactive signals was quantified using Image-J software (NIH, Bethesda, […], USA). β-Tubulin (β-Tub) was used as a loading control for all experiments.

[4] = molecular target: T2, hMAO-B (Homo sapiens, UniProt P27338); assay: MAO-B reversibility study; type: biochemical; details: at concentrations corresponding to IC80, p-tyramine raised to 1 mM
T2 construct: purchased Sigma-Aldrich M7441
T2 sequence (P27338 1-520): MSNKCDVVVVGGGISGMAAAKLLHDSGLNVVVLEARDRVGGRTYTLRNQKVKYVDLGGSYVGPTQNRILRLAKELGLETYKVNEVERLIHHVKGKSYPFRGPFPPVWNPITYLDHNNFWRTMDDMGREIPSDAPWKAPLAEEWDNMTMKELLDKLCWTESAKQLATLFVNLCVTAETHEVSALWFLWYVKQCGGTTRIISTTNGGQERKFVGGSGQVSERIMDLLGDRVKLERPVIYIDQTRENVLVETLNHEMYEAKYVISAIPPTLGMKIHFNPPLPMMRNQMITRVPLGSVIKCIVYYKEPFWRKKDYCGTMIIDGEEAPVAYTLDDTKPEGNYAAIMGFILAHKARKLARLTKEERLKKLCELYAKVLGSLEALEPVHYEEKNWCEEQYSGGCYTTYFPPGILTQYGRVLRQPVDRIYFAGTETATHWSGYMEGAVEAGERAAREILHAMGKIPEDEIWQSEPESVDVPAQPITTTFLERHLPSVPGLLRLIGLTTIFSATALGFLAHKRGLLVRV

[5] = test system: SCOP-induced cognitive impairment in rats; assay: Scopolamine-induced amnesia in NOR test in rats; type: in vivo, rat; details: SCOP 1.25 mg/kg ip, PZ-1922 0.3, 1, 3 mg/kg ip, donepezil 1 and 3 mg/kg ip
Procedure: Rats were allowed to acclimate for at least 7 days before the beginning of the experimental procedure. During this week, the animals were handled at least 3 times. Behavioral testing was carried out during the light phase of the light/dark cycle. The experiments were conducted in accordance with the NIH Guide for the Care and Use of Laboratory Animals and were approved by the Ethics Committee for Animal Experiments, Maj Institute of Pharmacology. At least 1 h before the beginning of the experiments, rats were transferred to the experimental room for acclimation. Rats were tested in a dimly lit (25 lx) “open field” apparatus made of dull gray plastic (66 × 56 × 30 cm). After each measurement, the floor was cleaned and dried. […] For the scopolamine-induced memory impairment paradigm, 1 h ITI was chosen. During the first trial (familiarization T1), two identical objects (A1 and A2) were presented in opposite corners, approximately 10 cm from the walls of the open field. In the second trial (recognition, T2), one of the objects was replaced by a novel one (A = familiar and B = novel). […] Exploration time of the objects and the distance traveled were measured using the Any-maze video tracking system. Based on exploration time (E) of two objects during T2, the discrimination index (DI) was calculated according to the formula DI = (EB – EA)/(EA + AB).

[6] = molecular target: the molecule itself; assay: cryo-EM structure; purified receptor in detergent C12E9, pentameric SEC fractions concentrated to 10 mg/mL, incubated 5 min with PZ-1922 or PZ-1939 before freezing
[7] = 1.5 mg/kg ip twice a day for 7 days

T1 sequence (P50406 whole entry): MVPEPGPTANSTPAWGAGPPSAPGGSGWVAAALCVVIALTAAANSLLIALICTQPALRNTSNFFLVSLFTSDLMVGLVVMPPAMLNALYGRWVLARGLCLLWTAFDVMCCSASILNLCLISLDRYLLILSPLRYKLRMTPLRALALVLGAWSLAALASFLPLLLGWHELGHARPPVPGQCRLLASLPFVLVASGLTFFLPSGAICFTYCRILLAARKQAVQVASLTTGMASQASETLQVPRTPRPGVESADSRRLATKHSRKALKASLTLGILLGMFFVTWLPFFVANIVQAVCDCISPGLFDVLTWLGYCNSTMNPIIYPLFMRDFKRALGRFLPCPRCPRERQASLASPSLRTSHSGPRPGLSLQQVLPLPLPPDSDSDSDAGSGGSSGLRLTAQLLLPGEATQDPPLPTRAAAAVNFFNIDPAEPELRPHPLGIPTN

For `NCCc1c[nH]c2ccc(C(N)=O)cc12` [Compound 5-CT, 5-carboxamidotryptamine], the EC50 [1] was 13 nM.

For `O=S(=O)(c1ccccc1)c1cnc2c(N3CCNCC3)cccc2c1` [Intepirdine, reference compound], the “effect on oAβ25–35-induced memory deficits in T-maze, curative treatment” value ([2]; 1.5 mg/kg ip twice a day for 7 days, started 1 week after icv oAβ25–35) was “only partially reversed the memory deficits”, the “effect on oAβ25–35-induced memory deficits in T-maze, preventive treatment” value ([2]; 3 mg/kg/day by ip osmotic pump for 1 week, concomitant with icv oAβ25–35) was “did not exhibit the same preventive effect” and the “hippocampal Caspase-3 and Pro-caspase-3 expression, curative strategy” value [3, 7] was “decreased expression of Caspase-3 and Pro-caspase-3”. The “hippocampal PSD-95 and SYN levels, curative treatment” value [3, 7] was “reversed only the SYN level”, the “hippocampal Caspase-3 and Pro-caspase-3 expression, preventive treatment” value ([3]; 3 mg/kg/day osmotic pump 1 week) was “prevented increased expression of Caspase-3 and Pro-caspase-3” and the “hippocampal GFAP increase” value ([3]; curative and preventive approach) was “Neither PZ-1922 nor intepirdine impacted the GFAP increase”.

`C#CCN[C@@H]1CCc2ccccc21` [Rasagiline] was tested, and the “reversibility of MAO-B inhibition (recovery of MAO-B activity)” value [4] was “irreversible inhibitor”.

In the case of `C[C@H](NCc1ccc(OCc2cccc(F)c2)cc1)C(N)=O` [Safinamide], the “reversibility of MAO-B inhibition (recovery of MAO-B activity)” value [4] is reported as “reversible MAO-B inhibitors”.

For `COc1cc2c(cc1OC)C(=O)C(CC1CCN(Cc3ccccc3)CC1)C2` (centres unmarked) [donepezil], the “effect on SCOP-induced short-term memory deficits (discrimination index) in NOR test” value [5] was “reduced the memory deficits induced by SCOP”.

B1: mouse 5-HT3A receptor (receptor, UniProt P23979 24-489, looked up)
chain: SRRRATQARDTTQPALLRLSDHLLANYKKGVRPVRDWRKPTTVSIDVIMYAILNVDEKNQVLTTYIWYRQYWTDEFLQWTPEDFDNVTKLSIPTDSIWVPDILINEFVDVGKSPNIPYVYVHHRGEVQNYKPLQLVTACSLDIYNFPFDVQNCSLTFTSWLHTIQDINITLWRSPEEVRSDKSIFINQGEWELLEVFPQFKEFSIDISNSYAEMKFYVIIRRRPLFYAVSLLLPSIFLMVVDIVGFCLPPDSGERVSFKITLLLGYSVFLIIVSDTLPATAIGTPLIGVYFVVCMALLVISLAETIFIVRLVHKQDLQRPVPDWLRHLVLDRIAWILCLGEQPMAHRPPATFQANKTDDCSGSDLLPAMGNHCSHVGGPQDLEKTPRGRGSPLPPPREASLAVRGLLQELSSIRHFLEKRDEMREVARDWLRVGYVLDRLLFRIYLLAVLAYSITLVTLWSIWHYS
notes: 5-hydroxytryptamine (serotonin) receptor 3A, mouse; called full-length in the discussion; the construct is only said to be 'as previously described with some minor modifications'; The intracellular domain is only partly resolved; also called m5-HT3R; m5HT3R
B1 was tested, and the “stoichiometry N” value [6] was 5.
